Earlier results in paper PMC5668067, “Phase I dose-escalation study of the c-Met tyrosine kinase inhibitor SAR125844 in Asian patients with advanced solid tumors, including patients with MET-amplified gastric cancer” (Oncotarget, 2017).

Columns and labels:
[1] = tested on: gastric or gastroesophageal junction cancer; conditions: cited from earlier work
[2] = tested on: MET-amplified gastroesophageal junction, gastric, or esophageal tumors; set-up: method as in ref 16 = [16]; 16 Kwak EL LoRusso P Hamid O Janku F Kittaneh M Catenacci DV Chan E Bekaii-Saab TS Amore B Hwang YC Tang R Ngarmchamnanrith G Hong DS Clinical activity of AMG 337, an oral MET kinase inhibitor, in adu; conditions: eight of 13 patients with MET-amplified tumors; cited from earlier work
[3] = tested on: unselected gastric cancer patients; conditions: cited from earlier work
[4] = tested on: highly MET-amplified (MET:CEP7 >5) gastroesophageal cancers; set-up: method as in PMID 22042947; conditions: cited from earlier work

onartuzumab: an anti-c-Met antibody
survival benefit of addition to chemotherapy ([1]; regardless of c-Met expression): no survival advantage

COCCOc1cnc2ccn([C@H](C)c3nnc4c(F)cc(-c5cnn(C)c5)cn34)c(=O)c2c1 [AMG 337]
partial or near complete response [2]: 62%

O=C1NC(=O)[C@@H](c2cn3c4c(cccc24)CCC3)[C@@H]1c1c[nH]c2ccccc12 [tivantinib]
objective responses [3]: no objective responses

C[C@@H](Oc1cc(-c2cnn(C3CCNCC3)c2)cnc1N)c1c(Cl)ccc(F)c1Cl [crizotinib]
patients with tumor shrinkage [4]: two of four

COc1cc2c(Oc3ccc(NC(=O)C4(C(=O)Nc5ccc(F)cc5)CC4)cc3F)ccnc2cc1OCCCN1CCOCC1 [foretinib]
objective responses [3]: no objective responses

rilotumumab: an anti-HGF antibody
clinical benefit combined with chemotherapy ([1]; c-Met-positive gastric or gastroesophageal junction cancer): failed to show clinical benefit
